The values that follow come from patent publication US20240018122A1, “PYRIDAZINYL AMINO DERIVATIVES AS ALK5 INHIBITORS” (CHIESI FARMACEUTICI S.P.A., priority 2020, published 2024).

For orientation: IC50 means the midpoint of a concentration-inhibition curve.

human ALK5, sequence (P36897 80-503 limits assumed): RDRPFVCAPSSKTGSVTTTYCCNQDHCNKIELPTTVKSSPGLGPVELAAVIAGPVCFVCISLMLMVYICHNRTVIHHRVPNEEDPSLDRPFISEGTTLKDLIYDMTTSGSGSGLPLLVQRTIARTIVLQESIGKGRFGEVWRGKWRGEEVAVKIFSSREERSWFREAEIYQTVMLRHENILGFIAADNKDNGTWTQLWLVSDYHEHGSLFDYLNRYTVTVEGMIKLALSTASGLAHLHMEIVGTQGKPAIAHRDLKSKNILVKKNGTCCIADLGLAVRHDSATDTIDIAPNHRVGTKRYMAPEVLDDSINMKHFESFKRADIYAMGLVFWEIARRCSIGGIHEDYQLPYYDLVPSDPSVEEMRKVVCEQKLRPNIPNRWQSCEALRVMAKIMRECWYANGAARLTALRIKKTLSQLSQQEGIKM

The experiment addresses human ALK5 (Homo sapiens (Human), UniProt P36897). As to the kind of experiment: ADP-GLO Kinases assay, inhibitory activity on ALK5. It is filed as biochemical. Particulars: purified recombinant human ALK5 2.6 nM, TGFβ1 peptide substrate, 25° C, 150 min incubation, ADP-Glo detection; read-out: ALK5 IC50.
In the case of `Cc1nnc(-c2cc(Cl)ccc2F)cc1Nc1ccnc(NC(=O)CCN2CCN(C)C(CO)C2)c1` (stereo not shown) [Example 170], the IC50 is < 1 nM.
Take `COC(=O)c1cc2c(Nc3cnnc(-c4cc(Cl)ccc4F)c3)ccnc2cc1OCCN1CCN(C)CC1` [Example 171, Methyl 4-{[6-(5-Chloro-2-Fluorophenyl)Pyridazin-4-Yl]Amino}-7-[2-(4-Methylpiperazin-1-Yl)Ethoxy]Quinoline-6-Carboxylate]: the IC50 is < 1 nM.
Turning to `Cc1nnc(-c2cc(Cl)ccc2F)cc1Nc1ccnc(NC(=O)CN2CCN(C)CC2)c1` [Example 172, N-(4-{[6-(5-Chloro-2-Fluorophenyl)-3-Methylpyridazin-4-Yl]Amino}Pyridin-2-Yl)-2-(4-Methylpiperazin-1-Yl)Acetamide], the IC50 is < 1 nM.
In the case of `CN1CCN(CCC(=O)Nc2cc(Nc3cc(-c4cc(Cl)ccc4F)nnc3C3CC3)ccn2)CC1` [Example 173], the IC50 was < 1 nM.
For the compound `CN1CCN(CCC(=O)Nc2cc(Nc3cc(-c4cc(Cl)ccc4F)nnc3CO)ccn2)CC1` [Example 174, N-(4-{[6-(5-chloro-2-fluorophenyl)-3-(hydroxymethyl)pyridazin-4-yl]amino}pyridin-2-yl)-3-(4-methylpiperazin-1-yl)propanamide], the IC50 was < 1 nM.
Consider `COC(=O)N(C)CCN1CCN(CC(=O)Nc2cc(Nc3cc(-c4cc(Cl)ccc4F)nnc3CO)ccn2)CC1` [Example 175, Methyl N-[2-(4-{[(4-{[6-(5-Chloro-2-Fluorophenyl)-3-(Hydroxymethyl)Pyridazin-4-Yl]Amino}Pyridin-2-Yl)Carbamoyl]Methyl}Piperazin-1-Yl)Ethyl]-N-Methylcarbamate], for which the IC50 was < 1 nM.
Turning to `CN1CCN(CC(=O)Nc2cc(Nc3cc(-c4cc(Cl)ccc4F)nnc3CO)ccn2)CC1` [Example 176, N-(4-{[6-(5-chloro-2-fluorophenyl)-3-(hydroxymethyl)pyridazin-4-yl]amino}pyridin-2-yl)-2-(4-methylpiperazin-1-yl)acetamide], the IC50 was < 1 nM.
Then `CN1CCN(CCOc2ccc3c(Nc4cc(-c5cc(Cl)ccc5F)nnc4CO)ccnc3c2)CC1` [Example 177, [6-(5-Chloro-2-Fluorophenyl)-4-({7-[2-(4-Methylpiperazin-1-Yl)Ethoxy]Quinolin-4-Yl}Amino)Pyridazin-3-Yl]Methanol], with < 1 nM; and `CN1CCCN(CC(=O)Nc2cc(Nc3cc(-c4cc(Cl)ccc4F)nnc3CO)ccn2)CC1` [Example 178, N-(4-{[6-(5-Chloro-2-Fluorophenyl)-3-(Hydroxymethyl)Pyridazin-4-Yl]Amino}Pyridin-2-Yl)-2-(4-Methyl-1,4-Diazepan-1-Yl)Acetamide], with < 1 nM.
As to `CN1CC2(CCN(CC(=O)Nc3cc(Nc4cc(-c5cc(Cl)ccc5F)nnc4CO)ccn3)CC2)C1` [Example 179, N-(4-{[6-(5-Chloro-2-Fluorophenyl)-3-(Hydroxymethyl)Pyridazin-4-Yl]Amino}Pyridin-2-Yl)-2-{2-Methyl-2,7-Diazaspiro[3.5]Nonan-7-Yl}Acetamide], the IC50 is < 1 nM.
Then `Nc1cc(Nc2cc(-c3cc(Cl)ccc3F)nnc2C(F)(F)F)ccn1` [Example 180, N4-[6-(5-Chloro-2-Fluorophenyl)-3-(Trifluoromethyl)Pyridazin-4-Yl]Pyridine-2,4-Diamine], with < 1 nM; and `Fc1ccc(Cl)cc1-c1cc(Nc2ccncc2)c(C(F)(F)F)nn1` [Example 181], with < 1 nM; and `CN1CCN(CCC(=O)Nc2cc(Nc3cc(-c4cc(Cl)ccc4F)nnc3C(F)(F)F)ccn2)CC1` [Example 182, N-(4-{[6-(5-Chloro-2-Fluorophenyl)-3-(Trifluoromethyl) Pyridazin-4-Yl]Amino}Pyridin-2-Yl)-3-(4-Methylpiperazin-1-Yl)Propanamide], with < 1 nM.
As for `CN1CCN(CCOc2ccc3c(Nc4cc(-c5cc(Cl)ccc5F)nnc4C(F)(F)F)ccnc3c2)CC1` [Example 183, N-[6-(5-Chloro-2-Fluorophenyl)-3-(Trifluoromethyl)Pyridazin-4-Yl]-7-[2-(4-Methylpiperazin-1-Yl)Ethoxy]Quinolin-4-Amine], the IC50 is < 1 nM.
`O=C(CCN1CCN(CCO)CC1)Nc1cc(Nc2cc(-c3cc(Cl)ccc3F)nnc2C(F)(F)F)ccn1` [Example 184, N-(4-{[6-(5-Chloro-2-Fluorophenyl)-3-(Trifluoromethyl)Pyridazin-4-Yl]Amino}Pyridin-2-Yl)-3-[4-(2-Hydroxyethyl)Piperazin-1-Yl]Propenamide]: the IC50 is < 1 nM.
Turning to `CS(=O)(=O)CCN1CCN(CCC(=O)Nc2cc(Nc3cc(-c4cc(Cl)ccc4F)nnc3C(F)(F)F)ccn2)CC1` [Example 185], the IC50 was < 1 nM.
The result for `N#CCCN1CCN(CCC(=O)Nc2cc(Nc3cc(-c4cc(Cl)ccc4F)nnc3C(F)(F)F)ccn2)CC1` [Example 186, N-(4-{[6-(5-chloro-2-fluorophenyl)-3-(trifluoromethyl)pyridazin-4-yl]amino}pyridin-2-yl)-3-[4-(2-cyanoethyl)piperazin-1-yl]propenamide] reads < 1 nM; that for `COC(=O)CCc1nnc(-c2cc(Cl)ccc2F)cc1Nc1ccnc(NC(=O)CCN2CCN(C)CC2)c1` [Example 187, Methyl 3-[6-(5-Chloro-2-Fluorophenyl)-4-({2-[3-(4-Methylpiperazin-1-Yl)Propanamido]Pyridin-4-Yl}Amino)Pyridazin-3-Yl]Propanoate], < 1 nM; that for `COC(=O)[C@H]1CC[C@@H](c2nnc(-c3cc(Cl)ccc3F)cc2Nc2ccnc(NC(=O)CCN3CCN(C)CC3)c2)CC1` [Example 188, methyl cis-4-(6-(5-chloro-2-fluorophenyl)-4-((2-(3-(4-methylpiperazin-1-yl)propanamido)pyridin-4-yl)amino)pyridazin-3-yl)cyclohexane-1-carboxylate], 1 to 5 nM.
Then `COC(=O)[C@H]1CC[C@H](c2nnc(-c3cc(Cl)ccc3F)cc2Nc2ccnc(NC(=O)CCN3CCN(C)CC3)c2)CC1` [Example 189, methyl trans-4-(6-(5-chloro-2-fluorophenyl)-4-((2-(3-(4-methylpiperazin-1-yl)propanamido)pyridin-4-yl)amino)pyridazin-3-yl)cyclohexane-1-carboxylate], with < 1 nM.
Consider `Cc1nnc(-c2cc(C(F)F)ccc2F)cc1Nc1ccnc(NC(=O)CCN2CCN(C)CC2)c1` [Example 190, N-[4-({6-[5-(Difluoromethyl)-2-Fluorophenyl]-3-Methylpyridazin-4-Yl}Amino)Pyridin-2-Yl]-3-(4-Methylpiperazin-1-Yl)Propenamide], for which the IC50 is < 1 nM.
The result for `COC(=O)CCCc1nnc(-c2cc(Cl)ccc2F)cc1Nc1ccnc(NC(=O)CCN2CCN(C)CC2)c1` [Example 191, Methyl 4-(6-(5-Chloro-2-Fluorophenyl)-4-((2-(3-(4-Methylpiperazin-1-Yl)Propanamido)Pyridin-4-Yl)Amino)Pyridazin-3-Yl)] reads < 1 nM.
With `Fc1ccc(Cl)cc1-c1cc(Nc2nc3cccnc3[nH]2)cnn1` [Example C1, 6-(5-chloro-2-fluorophenyl)-N-{3H-imidazo[4,5-b]pyridin-2-yl}pyridazin-4-amine, reference compound], the IC50 was 6290 nM.
For the compound `Nc1nccc(Nc2cnnc(-c3cc(Cl)ccc3F)c2)n1` [Example C2, N4-[6-(5-chloro-2-fluorophenyl)pyridazin-4-yl]pyrimidine-2,4-diamine, reference compound], the IC50 is 482 nM.
With `COC(=O)c1cccc(-c2cc(Nc3ccnc(N)c3)cnn2)c1F` [Example C3, reference compound], the IC50 was determined as 10000 nM.
